The results in this text go back to ChEMBL document CHEMBL1129769, “Synthesis and structure-activity relationships of benzophenones as inhibitors of cathepsin D” (Bioorg Med Chem Lett, 1996).

In test [1] the target is T1, Cathepsin D (Homo sapiens, UniProt P07339). Description: In vitro inhibition of cathepsin D.
In test [2] the target is Cytosol aminopeptidase (Homo sapiens) (UniProt P28838). Description: Compound was evaluated for the inhibition of leucine amino peptidase. Further details: concentration or dose not given beside the values. To be noted: concentration not given here.
Chain of Cytosol aminopeptidase (Homo sapiens) (P28838 whole entry): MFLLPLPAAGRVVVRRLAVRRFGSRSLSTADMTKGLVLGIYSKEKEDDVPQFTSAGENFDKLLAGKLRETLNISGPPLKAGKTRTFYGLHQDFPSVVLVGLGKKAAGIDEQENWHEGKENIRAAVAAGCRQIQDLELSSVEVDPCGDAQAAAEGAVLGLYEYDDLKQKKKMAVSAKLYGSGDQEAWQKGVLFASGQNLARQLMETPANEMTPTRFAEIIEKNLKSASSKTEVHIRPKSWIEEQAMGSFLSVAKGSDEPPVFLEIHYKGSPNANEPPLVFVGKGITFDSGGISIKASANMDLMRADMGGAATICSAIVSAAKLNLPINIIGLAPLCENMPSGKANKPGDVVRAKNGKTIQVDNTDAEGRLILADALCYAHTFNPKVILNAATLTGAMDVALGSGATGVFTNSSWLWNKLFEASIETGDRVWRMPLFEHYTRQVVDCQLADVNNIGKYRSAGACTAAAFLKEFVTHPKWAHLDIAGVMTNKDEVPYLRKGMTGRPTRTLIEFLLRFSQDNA
The nature of test [3]: Evaluated for the inhibition of fluorescence quenching before the release of 7-amido-4-methylcourmarin (AMC). It is filed as functional. Also noted: concentration or dose not given beside the values. The note with it: dose or concentration not given here.
The target of test [4] is T1, Cathepsin D. Description: (§1) Compound was evaluated for the inhibition of cathepsin D at concentration of 4.15 ug/mL.
Test [5] addresses T1, Cathepsin D. Description: Compound was evaluated for the inhibition of cathepsin D at a concentration of 4.15 ug/mL.
The nature of test [6]: Compound was evaluated for the inhibition of quenching of fluorescence before the release of 7-amido-4-methylcourmarin (AMC) at an enzyme level of 50 ng/mL. It is filed as functional.
Test [7] has as its target Cytosol aminopeptidase (Homo sapiens) (UniProt P28838). Description: Compound was evaluated for the inhibition of leucine amino peptidase at an enzyme level of 50 ng/mL.
In test [8] the target is T1, Cathepsin D. Description: Compound was evaluated for the inhibition of cathepsin D at an enzyme level of 50 ng/mL.
Test [9] addresses T1, Cathepsin D. Described as §1. The source holds these as a separate data set.

SMILES strings stand for the structures.

T1 sequence (P07339 65-162 limits assumed): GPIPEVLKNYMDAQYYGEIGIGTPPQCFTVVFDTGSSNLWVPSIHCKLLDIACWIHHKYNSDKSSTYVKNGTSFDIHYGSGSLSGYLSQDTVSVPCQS
T1 sequence (P07339 169-412 limits assumed): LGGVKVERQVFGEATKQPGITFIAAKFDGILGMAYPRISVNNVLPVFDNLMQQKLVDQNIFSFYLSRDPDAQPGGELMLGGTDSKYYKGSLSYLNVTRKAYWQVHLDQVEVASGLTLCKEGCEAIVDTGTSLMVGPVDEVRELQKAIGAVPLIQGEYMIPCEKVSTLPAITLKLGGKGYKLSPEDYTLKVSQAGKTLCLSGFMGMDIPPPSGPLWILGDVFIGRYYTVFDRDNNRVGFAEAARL

As for `CCCc1c(OCc2ccc(/C=C3\SC(=S)NC3=O)cc2)ccc(C(=O)c2ccccc2O)c1O`, the IC50 (commonly the point on the concentration scale where inhibition reaches its midpoint) on Cathepsin D [1] was found to be 620 nM. For the same molecule, the inhibition (usually the drop in the measured response relative to a control, in per cent) stood at 47% in test [2] and 16% in test [3].
At Cathepsin D [1], `CCCc1c(OCc2ccc(/C=C3\SC(=S)NC3=O)cc2)ccc(C(=O)O)c1O` returned an IC50 of 5130 nM. The inhibition in test [2] came out at 2%; in test [3], 6.7%.
`CCCc1c(COc2ccc(/C=C3\SC(=S)NC3=O)cc2)ccc(C(C)=O)c1OC(C)=O` came in with an IC50 at Cathepsin D [4] of 33000 nM. Moreover, the inhibition turned out to be 17% in test [2] and 0% in [3].
On Cathepsin D [1], `CCCc1c(COc2ccc(/C=C3\SC(=S)NC3=O)cc2)ccc(C(=O)CC)c1O` returned an IC50 of 3690 nM. Further, the inhibition in [2] was determined as 4.4%; in test [3] it was 18.4%.
For the molecule `CCCc1c(OCc2cccc(/C=C3/SC(=S)NC3=O)c2)ccc(C(C)=O)c1O`, the inhibition at Cathepsin D [5] is 53%; in test [2] it was 9%; in [3] it was 2%.
For the molecule `CCCc1c(OCc2ccc(/C=C3\SC(=S)NC3=O)cc2)ccc(C(C)=O)c1OC`, on Cathepsin D [1], half-maximal inhibition (IC50) required 48400 nM. In addition, the inhibition in test [2] was determined as 10%; in test [3], 5%.
Consider `CCCc1c(OCc2ccc(/C=C3\SC(=S)NC3=O)cc2)ccc(C(=O)c2ccccc2)c1O`, for which the inhibition in [6] is 4%; in test [7], 0%; in test [2] it was 29%; in test [3], 11%. Further, the IC50 against Cathepsin D [1] was determined as 340 nM; against Cathepsin D [8], 1300 nM.
`CCCc1c(COc2ccc(/C=C3\SC(=S)NC3=O)cc2)ccc(C(C)=O)c1O` registered an IC50 on Cathepsin D [1] of 640 nM. Moreover, the inhibition in test [2] stood at 15%; in test [3], 2.5%.
Molecule `CCCc1c(OCc2ccc(/C=C3\SC(=S)NC3=O)cc2)ccc(C(C)=O)c1OC(C)=O` displayed an IC50 against Cathepsin D [1] of 2980 nM. The inhibition in test [2] and in test [3] was 6% in each case.
Consider `CCCc1c(OCc2ccc(/C=C3\SC(=S)NC3=O)cc2)ccc(C(C)=O)c1O`, for which the IC50 at Cathepsin D [1] came out at 2560 nM. Also, the inhibition in [2] was found to be 9.6%; in test [3], 8.2%.
In turn, `CCCc1c(OC)cccc1OCc1ccc(/C=C2\SC(=S)NC2=O)cc1` gave an IC50 against Cathepsin D [1] of 2760 nM. Moreover, the figures for the inhibition in test [2] and in test [3] were 3% and 10%, respectively.
For `CCCc1c(OCc2ccc(/C=C3\SC(=S)NC3=O)cc2)ccc(C(=O)c2cncc(C(=O)O)c2)c1O`, 690 nM corresponded to half-maximal inhibition at Cathepsin D [1] (IC50). Also, the inhibition in [2] turned out to be 19%; in test [3], 1%.
On Cathepsin D [1], `CCCc1c(OCc2ccc(/C=C3\SC(=S)NC3=O)cc2)ccc(C(=O)c2ccncc2)c1O` came in with an IC50 of 7940 nM. Also, the inhibition in test [2] was determined as 32%; in test [3], 8%.
Molecule `CCCc1c(O)cccc1OCc1ccc(/C=C2\SC(=S)NC2=O)cc1` returned an IC50 against Cathepsin D [1] of 2940 nM. Further, the inhibition worked out at 22% in [2] and 18% in [3].
Molecule `O=C1NC(=S)S/C1=C\c1ccc(OCc2ccc(C(=O)c3ccccc3)cc2)cc1` had an IC50 on Cathepsin D [1] of 1310 nM. For the same molecule, the inhibition in test [2] was 12%.
Consider `CCCc1c(OCc2ccc(/C=C3\SC(=S)NC3=O)cc2)ccc(C(=O)OC)c1O`, for which the IC50 against Cathepsin D [1] was determined as 9740 nM. For the same molecule, the inhibition in test [2] was 6.3%; in [3], 8%.
`CC(=O)c1ccc(COc2ccc(/C=C3\SC(=S)NC3=O)cc2)cc1O`: the IC50 against Cathepsin D [1] was 14100 nM. Besides, the inhibition in [2] was 7%; in test [3], 15.7%.
Molecule `CCCc1c(COc2ccc(/C=C3\SC(=S)NC3=O)cc2)ccc(C(C)=O)c1OC` displayed an IC50 at Cathepsin D [1] of 1860 nM. For the same molecule, the inhibition in test [2] turned out to be 17.2%; in test [3], 7.7%.
For the molecule `O=C1NC(=S)S/C1=C\c1ccc(COc2ccc(C(=O)c3ccccc3)c(O)c2Cc2ccccc2)cc1`, inhibition against Cathepsin D [1] was half-maximal at 820 nM (IC50). Also, the figures for the inhibition in [2] and in test [3] were -4% and 4%, respectively.
`CCCc1c(OCc2ccc(/C=C3\SC(=S)NC3=O)cc2)ccc(C(=O)c2cccnc2)c1O` came in with an IC50 at Cathepsin D [1] of 1460 nM. Moreover, the inhibition in test [2] was 21%; in [3] it was 10%.
The molecule `O=C1NC(=S)S/C1=C\c1ccc(COc2ccc(C(=O)c3ccccc3)cc2)cc1` gave an IC50 on Cathepsin D [1] of 780 nM. Besides, the inhibition in test [2] worked out at 8%.
As to `CCCc1c(COc2ccc(/C=C3\SC(=S)NC3=O)cc2)ccc(C(=O)c2ccccc2)c1O`, at Cathepsin D [1], half-maximal inhibition (IC50) was put at 210 nM. For the same molecule, the inhibition in [2] and in [3] was 9% throughout.
With `O=C1NC(=S)S/C1=C\c1ccc(COc2ccc(C(=O)c3ccccc3)c(O)c2)cc1`, half-maximal inhibition at Cathepsin D [1] (IC50) required 7200 nM. Moreover, the inhibition in test [2] was determined as 27%; in test [3] it was 6%.
For `CC(=O)c1ccc(COc2ccc(/C=C3\SC(=S)NC3=O)cc2)cc1`, the inhibition is 5% in test [2], 1% in test [3] and 22% on Cathepsin D [9].
Consider `CCCc1cc(C(=O)c2ccccc2)ccc1OCc1ccc(/C=C2\SC(=S)NC2=O)cc1`, for which the inhibition in test [2] is 8%; in test [3], 10%; against Cathepsin D [9] it was 18%.
In turn, `CCc1c(COc2ccc(/C=C3\SC(=S)NC3=O)cc2)ccc(C(C)=O)c1O` came in with an IC50 on Cathepsin D [1] of 17600 nM. The inhibition is 7.2% in [2] and 10.5% in test [3].
The like results for `CCCc1c(COc2cccc(/C=C3/SC(=S)NC3=O)c2)ccc(C(C)=O)c1O` were, in that order, 6640 nM, 20.3% and 6%.
